{"source": "patent US8106065B2", "about": "“Antitussive agent” (Toray Industries, Inc., priority 2005, dated 2012)", "test_system": "coughing induced by citric acid", "experiment": "Effect on guinea pig coughing models induced by citric acid", "assay_type": "in vivo", "conditions": "s.c.; for antitussive effect (number of coughs): Comparative Example 1; for effects for suppressing coughs in comparison to the cough number of the pathosis-induced group: Example 3, 0.1 mg/kg, p<0.05 t-Test", "excerpt": "The fact that the morphinan derivatives having the nitrogen-containing cyclic substituent, represented by Formula (I) and the pharmaceutically acceptable acid addition salts thereof are effective for the therapy of coughing may be confirmed by showing inhibitory action against coughing of a guinea pig, which coughing has been induced by administering citric acid to the guinea pig. The inhibitory action against the coughing induced by citric acid administration may be confirmed by the method described in the Examples, but the method is not restricted thereto.\nA solution of test substance, a solution of positive control substance (codeine phosphate) or the administration solvent was subcutaneously administered to 6 week-old Hartley guinea pigs at a volume of 0.1 mL/100 g. After leaving the guinea pigs to stand for 25 minutes, they were retained in acrylic chambers for cough detection and the chambers were set to a measurement equipment. Thirty minutes after the subcutaneous administration of the test substance, the nebulizer was turned on and 100 mM citric acid solution, a cough inducer, was atomized and sprayed to the face of each guinea pig for a period of 15 minutes (velocity: 50 mm/min). A minipolygraph was used for recording, and the respiratory waveform within the period of 15 minutes was recorded. A signal when a large and acute change of flow rate compared to the respiratory waveform occurred independently was considered as a cough, and marked on the recording sheet. The marking was conducted while recording the respiratory waveform. When a large and continuous amplitude arose by struggling, the amplitude was distinguished by noting that it was caused by struggling. Since some coughings cause just before, and/or between struggling, the recording sheet and the motion of the guinea pig were observed as simultaneously as possible.", "note": "Structures can show the parent of a compound that is named as a salt.", "data": [{"compound": "O=C1C=CC(=O)N1[C@@H]1CC[C@@]2(O)[C@H]3Cc4ccc(O)c5c4[C@@]2(CCN3CC2CC2)[C@H]1O5", "note": "[Compound 6, N-(17-cyclopropylmethyl-4,5α-epoxy-3,14-dihydroxy-morphinan-6β-yl)-maleimide-tartaric acid salt]", "values": [{"measurement": "antitussive effect (number of coughs)", "setting": "1 mg/kg", "result": "no antitussive effect was observed"}]}, {"compound": "O=C1c2ccccc2C(=O)N1[C@@H]1CC[C@@]2(O)[C@H]3Cc4ccc(O)c5c4[C@@]2(CCN3CC2CC2)[C@H]1O5", "note": "[Compound 1, N-(17-cyclopropylmethyl-4,5α-epoxy-3,14-dihydroxy-morphinan-6β-yl)-phthalimide]", "values": [{"measurement": "effect for suppressing coughs in comparison to the cough number of the pathosis-induced group", "setting": "Example 1, 1 mg/kg, 100 mM citric acid spray 30 min after dosing, p<0.01, n=7", "result": "approximately 94%"}, {"measurement": "effect for suppressing coughs in comparison to the cough number of the pathosis-induced group", "setting": "Example 2, 0.003 mg/kg, p<0.025 1 tailed-Shirley-Williams-Test, n=3", "result": "approximately 50%"}]}, {"compound": "O=C1C2=C(CCCC2)C(=O)N1[C@@H]1CC[C@@]2(O)[C@H]3Cc4ccc(O)c5c4[C@@]2(CCN3CC2CC2)[C@H]1O5", "note": "[Compound 3, N-(17-cyclopropylmethyl-4,5α-epoxy-3,14-dihydroxy-morphinan-6β-yl)-3,4,5,6-tetrahydrophthalimide.tartaric acid salt]", "values": [{"measurement": "effects for suppressing coughs in comparison to the cough number of the pathosis-induced group", "setting": "n=3", "result": "approximately 29%"}]}, {"compound": "COc1ccc2c3c1O[C@H]1[C@@H](O)C=C[C@H]4[C@@H](C2)N(C)CC[C@@]341", "note": "[codeine phosphate, reference compound]", "values": [{"measurement": "effect for suppressing coughs", "setting": "Example 1, 10 mg/kg, 100 mM citric acid spray 30 min after dosing, vs pathosis-induced group, p<0.05, n=7", "result": "approximately 51%"}, {"measurement": "effect for suppressing coughs", "setting": "Example 2, 10 mg/kg, p<0.05 Welch-Test, n=3", "result": "approximately 37%"}]}, {"compound": "O=C1c2ccccc2S(=O)(=O)N1[C@@H]1CC[C@@]2(O)[C@H]3Cc4ccc(O)c5c4[C@@]2(CCN3CC2CC2)[C@H]1O5", "note": "[Compound 5, N-(17-cyclopropylmethyl-4,5α-epoxy-3,14-dihydroxy-morphinan-6β-yl)-O-sulfonbenzoic acid imide-tartaric acid salt]", "values": [{"measurement": "effects for suppressing coughs in comparison to the cough number of the pathosis-induced group", "setting": "n=3", "result": "~28", "unit": "%"}]}, {"compound": "Oc1ccc2c3c1O[C@H]1[C@H](N4CCCC4)CC[C@@]4(O)[C@@H](C2)N(CC2CC2)CC[C@]314", "note": "[Compound 2, 17-cyclopropylmethyl-4,5α-epoxy-6β-(pyrrolidine-1-yl)-morphinan-3,14-diol.tartaric acid salt]", "values": [{"measurement": "antitussive effect (number of coughs)", "setting": "10 mg/kg", "result": "no antitussive effect was observed"}]}, {"compound": "O=C1c2ccccc2CN1[C@@H]1CC[C@@]2(O)[C@H]3Cc4ccc(O)c5c4[C@@]2(CCN3CC2CC2)[C@H]1O5", "note": "[Compound 4, 2-(7-cyclopropylmethyl-4,5α-epoxy-3,14-dihydroxy-morphinan-6β-yl)-2,3-dihydro-isoindol-1-one-tartaric acid salt]", "values": [{"measurement": "effects for suppressing coughs in comparison to the cough number of the pathosis-induced group", "setting": "n=3", "result": "~25", "unit": "%"}]}]}
